Test results reported in patent US9096554B2, “Drugs for inhibiting p38 and uses thereof” (UNIVERSIDAD AUTÓNOMA DE MADRID, priority 2011, dated 2015).
“Also recorded” adds a separate entry of the source.

Tests used:
THP-1 monocytes = experiment: THP-1 monocyte survival (propidium iodide, FACS); format: cell-based, human; settings: dose causing the death of 50% of the cells; THP-1, propidium iodide FACS
Method: (§1) This assay was performed to analyze the effect of the compounds of the invention on tumor necrosis factor alpha (TNF-α) secretion in response to bacterial lipopolysaccharide (LPS) in human monocytes (THP-1) and on the survival of said THP-1 monocytes in the presence of said compounds.
(§2) Briefly, cells from human monocytic cell line THP-1 (ATCC) at a density of about 10^6 cells/ml were stimulated with bacterial LPS (Sigma, Ref.# L2654) at a concentration of 1 mg/ml for 4 hours in the presence of the compounds of the invention dissolved in dimethyl sulfoxide (DMSO) at different concentrations (0.001, 0.01, 0.1, 1, 10 and 100 μM). The amount of TNF-α secreted into the medium in response to LPS was quantified by means of an ELISA assay (BioTrak, Ref.# RPN2758, GE-Amersham) following the manufacturer's instructions. Cell viability was quantified by means of flow cytometry FACS (FACScalibur, Becton Dickinson) after staining the treated cells with propidium iodide (1 mg/l) and quantifying the amount of positive cells for this stain (Software Cell Quest Pro).

[1] = system: TNF-α secretion in response to bacterial LPS in human monocytes (THP-1); experiment: TNF-α secretion in response to LPS in THP-1 monocytes (ELISA); format: cell-based; settings: for IC50: Homo sapiens, THP-1, LPS; for activity in TNF-α secretion inhibition compared with comparative Compounds 10-14: FIG. 8
Method: as §1, §2
These assays were performed to compare the effect of the compounds of the invention (compounds 1, 2 and 3) on tumor necrosis factor alpha (TNF-α) secretion in response to bacterial lipopolysaccharide (LPS) in human monocytes (THP-1) with respect to compounds that are structurally related but have a different substitution pattern in the phenyl ring. Conditions similar to those described in Example 7 were used.

p38 MAPK [2] = molecular target: p38 MAPK (Homo sapiens, UniProt Q16539); experiment: Inhibition of MEF2A phosphorylation by p38 MAPK in vitro; format: biochemical; settings: MEF2A (10 nM) phosphorylation by active recombinant p38 (1 nM), 5 minutes
Method: This assay was performed to quantify the effect of the compounds of the invention on MEF2-A phosphorylation by p38 MAPK in vitro.
To that end, briefly, active recombinant p38 (1 nM) and MEF2A (10 nM) were incubated with different concentrations of Compound 1 in a kinase buffer for 5 minutes. The proteins were resolved using SDS-PAGE and the activity of p38 was measured as phosphorylated MEF2A using anti-P-MEF2A (T312), a specific antibody. The mean of the results is graphically depicted as a percentage with respect to the controls (DMSO) of two independent experiments conducted in duplicate. For comparative purposes, Compound 5 at a concentration of 10 μM was used.
Finally, the in vitro mean inhibitory concentration (IC50) of this reaction for each assayed compound was determined as the measurement of the efficacy of a compound for inhibiting this biochemical function using a sufficient range of concentrations of each of these compounds (data not shown).

[3] = Paw thickness as measurement of ongoing inflammation; format: in vivo, mice; settings: six days after treatment, FIG. 11E
[4] = system: wild-type mice of strain C54BL/6; experiment: Hyperalgesia induced by high doses of carrageenan in wild-type mice, intrathecal injection; format: in vivo; settings: for analgesic effect: FIG. 11A
Method: The administration of high doses of carrageenan is known to induce hyperalgesia and prolonged inflammation in wild-type mice. Briefly, 16 female wild-type mice of strain C54BL/6 (4 mice per group, 8 paws for each condition) were subjected to intraplantar injection of carrageenan (Sigma-Aldrich, 20 μL of a 2% solution % in saline) for inducing inflammatory-type hyperalgesia in the extremities. Six (6) days after injecting carrageenan, the paw withdrawal latency time when the paw is in contact with heat was determined as an indication of inflammatory-type pain at time 0 (T=0). The known p38 MAPK inhibitor SB239063 [trans-4-[4-(4-fluorophenyl)-5-(2-methoxy-4-pyrimidinyl)-1H-imidazol-1-yl]cyclohexanol] (5 μg in 5 μL of 20% DMSO), the carrier (20% DMSO), or Compound 1 at different concentrations (0.5, 1.0 and 1.5 μg in 5 μL of 20% DMSO) was then intrathecally injected.

[5] = system: peritoneal macrophages of WT and GRK2^+/− mice; experiment: LPS-induced TNF-α secretion in peritoneal macrophages of WT and GRK2+/− mice; format: cell-based; settings: all doses, FIG. 13
Method: GRK2^+/− peritoneal macrophages were subjected to treatment with LPS and TNF secretion was measured in the presence of increasing doses of Compound 1 as described above. The inhibition observed in GRK2^+/− macrophages was greater than that obtained for WT cells for all doses of Compound 1. The data are means of points in duplicate referring in each case to the secretion obtained in WT macrophages in the presence of Compound 1 at the same dose.
TNF-α secretion inhibition in peritoneal macrophages of GRK2^+/− mice with Compound 1 was studied. As can be observed in FIG. 13, the greater effect of Compound 1 on GRK2^+/− macrophages may indicate that cells with a lower GRK2 level, as occurs in immune system cells from patients with inflammatory pathologies (Vroon A, Kavelaars A, Limmroth V, Lombardi M S, Goebel M U, Van Dam A M, Caron M G, Schedlowski M, Heijnen C J., J Immunol., 2005, 174(7), 4400-6) are more sensitive to such inhibition.

LysM-GRK2^f/+ mice = experiment: Carrageenan-induced hyperalgesia in LysM-GRK2f/+ mice, intrathecal injection; format: in vivo; settings: for hyperalgesia (paw withdrawal latency to heat): 7 days after carrageenan
Description: To perform this assay, a previously described protocol was followed [Willemen H L, et al., Microglial/macrophage GRK2 determines duration of peripheral IL-1beta-induced hyperalgesia: contribution of spinal cord CX3CR1, p38 and IL-1 signaling. Pain. 2010 September; 150(3):550-60; and Eijkelkamp N, et al., (http://www.ncbi.nlm.nih.gov/pubmed/20147541; J. Neurosci. 2010 Feb. 10; 30(6):2138-49). Briefly, eight female LysM-GRK2^f/+ mice (2 mice per group, 4 paws for each condition) were subjected to an intraplantar injection of carrageenan (Sigma-Aldrich, […] of a 1% solution in saline) for inducing inflammatory-type hyperalgesia in the extremities. Seven (7) days after injecting carrageenan, the paw withdrawal latency time when the paw is in contact with heat was determined as an indication of inflammatory-type pain at time 0 (T=0). The carrier (20% DMSO) or Compound 1 at different concentrations (0.15, 0.5 and 1.5 μg in 5 μL of 20% DMSO) was then intrathecally injected.
The paw withdrawal latency periods were then measured at different times (0.5, 1, 2, 4, 6, 8, 10, 24, 48 and 96 hours after injecting the compound).
To evaluate the effect of Compound 5 on hyperalgesia induced in mice, a protocol similar to that described for Compound 1 in Example 9A was followed, but in this protocol, the known p38 MAPK inhibitor SB239063 (5 μg in 5 μL of 20% DMSO), the carrier (20% DMSO), or Compound 5 (4 μg in 5 μL of 20% DMSO) was intrathecally injected 7 days after injecting the carrageenan.

TNF-α = TNF-α levels in the spinal cord after intrathecal treatment (ELISA); format: in vivo, mice; settings: FIG. 11D
Method: To find out if TNF-α levels are repressed in vivo after treatment with Compound 1, the spinal cord was isolated two days after intrathecal treatment with said compound and TNF-α levels were analyzed with ELISA.

[6] = system: spinal cord astrocytes and neurons; experiment: Toxicity at the intrathecal injection site, Fluoro-Jade B staining, LysM-GRK2f/+ mice; format: in vivo; settings: two days after the injection, FIG. 10
Method: Furthermore, the possible toxicity of Compound 1 at the injection site (intrathecal) was measured.

p38 MAPK [7] = experiment: Activation of p38 MAPK in response to LPS and its activity (P-MK2, P-Hsp27) in THP-1 cells, Western Blot; format: cell-based, human; settings: THP-1, LPS, 1 and 5 μM, FIG. 2B
Method: This assay was performed to analyze the effect of Compound 1 on the activation of p38 MAPK and on its activity in a human monocytic cell line (THP-1) (American Type Culture Collection: http://www.atcc.org/) treated with different concentrations of said compound.
Briefly, human monocytic cells from said THP-1 cell line at a density of about 10^6 cells/ml were stimulated with bacterial LPS (Sigma #L2654) at a concentration of between 1 and 10 mg/ml (which may vary depending on the batch) for 1 hour in the absence or presence of Compound 1 at different concentrations (1 μM and 5 μM) dissolved in dimethyl sulfoxide (DMSO). DMSO was used as a control. The cells were lysed in a 100 mM pH 7.5 Tris/HCl buffer, 200 mM EDTA, 1 μM benzamidine, 10 mg/ml STI (soy trypsin inhibitor), 10 mg/ml bacitracin, 80 mU/ml aprotinin, 100 μM phenylmethanesulfonyl fluoride (PMSF) and phosSTOP (Roche, Ref.#04906845001). The samples were subsequently analyzed using Western Blot with specific antibodies. Briefly, the activation of p38 MAPK was analyzed by quantifying by densitometry the amount of p38 MAPK phosphorylated in the activation loop (TGY) by means of Western Blot with anti-phospho-T180-Y182-p38 antibodies (Cell Signaling, Ref.#9211) and by normalizing the values with those obtained for total p38 MAPK levels in each lysate. […]

[8] = Table 3, comparison with positional isomers
[9] = doses of 1 and 1.5 μg intrathecal

Sequence of p38 MAPK (Homo sapiens, UniProt Q16539) (Q16539 whole entry): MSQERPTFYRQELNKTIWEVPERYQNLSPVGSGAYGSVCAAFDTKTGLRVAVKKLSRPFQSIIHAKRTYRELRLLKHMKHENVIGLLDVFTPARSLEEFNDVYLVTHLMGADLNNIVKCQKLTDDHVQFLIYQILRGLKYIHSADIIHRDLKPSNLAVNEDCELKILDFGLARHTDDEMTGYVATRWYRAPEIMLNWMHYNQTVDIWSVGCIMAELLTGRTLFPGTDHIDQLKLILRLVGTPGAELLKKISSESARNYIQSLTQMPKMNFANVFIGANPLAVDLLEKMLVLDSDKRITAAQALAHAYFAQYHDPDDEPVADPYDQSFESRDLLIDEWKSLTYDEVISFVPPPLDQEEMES

In the case of O=[N+]([O-])c1ccc(Nc2cc(Cl)ccc2O)c2nonc12 [Compound 2, 4-chloro-2-(7-nitro-benzo[1,2,5]oxadiazol-4-ylamino)-phenol], the “TD50 (μM)” value (THP-1 monocytes) is reported as >100 μM (n = 2), the IC50 ([1]; Table 2, TNF-α ELISA) is reported as 3.2 ± 0.25 µM and the “activity in TNF-α secretion inhibition compared with comparative Compounds 10-14” value ([1]; human monocytes) is reported as “greater activity”.
With O=[N+]([O-])c1ccc(Nc2cccc(F)c2F)c2nonc12 [Compound 9, reference compound] the IC50 ([1]; Table 4, comparison with positional isomer) was 5.25 ± 0.35 µM and the “capacity for reducing TNF-α secretion compared with Compound 3” value ([1]; human monocytes, FIG. 7) was “lower capacity”.
In the case of Cc1ccc(Nc2ccc([N+](=O)[O-])c3nonc23)c(Cl)c1 [Compound 8, reference compound], the IC50 [1, 8] is reported as 29 ± 1.41 µM.
With Cc1ccc(C)c(Nc2cc(Cl)c3nonc3c2[N+](=O)[O-])c1 [Compound 6, (7-chloro-4-nitro-benzo[1,2,5]oxadiazol-5-yl)-(2,5-dimethyl-phenyl)-amine] the IC50 ([1]; Table 2, TNF-α ELISA) was 3 µM.
In the case of COc1ccc(Cl)cc1C(=O)Nc1ccc(Cl)c2nonc12 [Compound 4, 5-chloro-N-(7-chloro-benzo[1,2,5]oxadiazol-4-yl)-2-methoxy-benzamide], the IC50 ([1]; Table 2, TNF-α ELISA) is reported as 3.2 µM.
Cc1ccc(Nc2ccc([N+](=O)[O-])c3nonc23)cc1Cl [Compound 7, reference compound] gave an IC50 [1, 8] of 17 ± 1.41 µM.
With Cc1ccc(Cl)cc1Nc1ccc([N+](=O)[O-])c2nonc12 [Compound 1, (5-chloro-2-methyl-phenyl)-(7-nitro-benzo[1,2,5]oxadiazol-4-yl)-amine] the IC50 (p38 MAPK [2]) was 6.5 µM, the mouse paw thickness [3] was “increased” and the analgesic effect ([4]; dose of 0.5 μg intrathecal, 6 days after carrageenan) was “temporary effect”. For the same compound, the “duration of analgesic effect” value [4, 9] was “at least 5 days”, the analgesic effect [4, 9] was “long-term analgesic effect” and the “inhibition of TNF secretion in GRK2+/− macrophages compared with WT cells” value [5] was “greater”. The “TD50 (μM)” value (THP-1 monocytes) was “≈200 μM (n = 2)”, the long-term analgesic effect (LysM-GRK2^f/+ mice; dose of 0.3 μg intrathecal, FIG. 9B) was “did not provide any long-term analgesic effect” and the “time the reduction of hyperalgesia was maintained after administering” value (LysM-GRK2^f/+ mice; doses of 0.5 and 1.5 μg intrathecal) was at least 96 h. For the same compound, the “hyperalgesia (paw withdrawal latency to heat)” value (LysM-GRK2^f/+ mice; doses of 0.5 and 1.5 μg intrathecal, FIG. 9A) was “almost complete reduction of hyperalgesia”, the lowest effective dose (LysM-GRK2^f/+ mice; intrathecal, FIG. 9B) was 0.5 µg and the IC50 ([1]; Table 2, TNF-α ELISA) was 1.8 ± 0.006 µM. The “activity in TNF-α secretion inhibition compared with comparative Compounds 10-14” value ([1]; human monocytes) was “greater activity”, the “TNF-α levels in the spinal cord” value (TNF-α; after intraplantar carrageenan, two days after intrathecal treatment) was “significantly reduces” and the “TNF-α secretion, compound alone” value (TNF-α; without carrageenan) was “has no effect”. The “neurotoxicity at the injection site (Fluoro-Jade B, dead or damaged cells)” value [6] was “no signs of neurotoxicity were detected; also recorded: hardly any dead cells”, the “activation of p38 MAPK (P-p38)” value (p38 MAPK [7]) was “decrease in the activation of p38 MAPK” and the “phosphorylation of MK2 and Hsp27 substrates” value (p38 MAPK [7]) was “decrease in the phosphorylation”.
With Cc1ccc(Cl)cc1Nc1cc(Cl)c2nonc2c1[N+](=O)[O-] [Compound 5, (5-chloro-2-methyl-phenyl)-(7-chloro-4-nitro-benzo[1,2,5]oxadiazol-5-yl)-amine] the IC50 (p38 MAPK [2]) was 10 µM, the “TD50 (μM)” value (THP-1 monocytes) was >35 μM (n = 3) and the “time after administering at which the decrease in hyperalgesia can be detected” value (LysM-GRK2^f/+ mice; 4 μg intrathecal) was 8 days. The “hyperalgesia (paw withdrawal latency to heat)” value (LysM-GRK2^f/+ mice; 4 μg intrathecal, FIG. 12) was “decrease in hyperalgesia” and the IC50 ([1]; Table 2, TNF-α ELISA) was 0.3 µM.
With O=[N+]([O-])c1ccc(Nc2cc(F)ccc2F)c2nonc12 [Compound 3, (2,5-difluoro-phenyl)-(7-nitro-benzo[1,2,5]oxadiazol-4-yl)-amine] the IC50 ([1]; Table 2, TNF-α ELISA) was 2.9 ± 0.41 µM.
